This is an account of results in US20240124520A1, “N-ACYLATED HISTIDINE DIPEPTIDES AS ANTICANCER AGENTS” (THE BOARD OF TRUSTEES OF THE LELAND STANFORD JUNIOR …, priority 2019, published 2024).

Common to all, as to assay type: cell-based
Assay [1] deals with K-562 human chronic myelogenous leukemia cells. In words: Cell Titer Blue in vitro cell viability assay, K-562. The note with it: 72 h, K562 (DMEM), in suspension, 3 days at 37° C. The protocol:
(§1) FIG. 11: Dose Response curve for MBC0179 with K-562 cells. Compound MBC0179 was incubated with K-562 human chronic myelogenous leukemia cells, a non-adherent cell line, at the indicated concentrations for 3 days at 37° C. prior to Cell Titer Blue fluorescence-based cell viability assay. Normalized cell viability data, expressed as a percentage, are averaged from three biological replicates and standard error represented by error bars for each averaged data point (empty squares). The compound concentrations are represented on log scale on the x-axis in μM units. Data were analyzed using free software called DrFit, as described in Nature Scientific Reports, Article number: 14701, (2015). […]
(§2) The Cell Titer Blue reagent (available from Promega, Inc.) is a buffered solution containing resazurin, a compound that is converted to resorufin, a detectable fluorescent product, by metabolically active cells. The fluorescence intensity of resorufin product therefore serves as a proportional measure of the number of viable cells, permitting changes in cell viability within cancer or other cell lines to be monitored in response to the addition of cytotoxic or cytostatic agents. […] Metastases to the lungs may be conveniently quantified by a well-established clonogenic assay. […]
(Alamar Blue is a resazurin reagent that responds to reducing activity.)

Assay [2] has as its system SK-N-SH human neuroblastoma cells. The assay is described as follows: Cell Titer Blue in vitro cell viability assay, SK-N-SH. Conditions: 72 h, SK-N-SH (DMEM), 3 days at 37° C. The procedure: as §1, with “15:” for “11:”, “SK—N—SH” for “K-562”, “neuroblastoma cells” for “chronic myelogenous leukemia cells, a non-adherent cell line,”
as §2

The subject of assay [3] is HEPG2 human liver carcinoma cells. The assay is described as follows: Cell Titer Blue in vitro cell viability assay, HEPG2. The note with it: 72 h, HEPG2 (DMEM), 3 days at 37° C. The procedure:
as §1, with “12:” for “11:”, “HEPG2” for “K-562”, “liver carcinoma cells” for “chronic myelogenous leukemia cells, a non-adherent cell line,”
as §2

In assay [4] the test system is OVCAR-3 human ovarian cancer cells. In words: Cell Titer Blue in vitro cell viability assay, OVCAR-3. The note with it: 72 h, OVCAR-3 (RPMI), 3 days at 37° C. The procedure:
as §1, with “14:” for “11:”, “OVCAR-3” for “K-562”, “ovarian cancer cells” for “chronic myelogenous leukemia cells, a non-adherent cell line,”
as §2

Structures are written as SMILES. Non-standard residues stand in square brackets, D forms with d. Residues, ends and D or L forms follow the SMILES beside them. *: point of attachment. Palmitoyl = CCCCCCCCCCCCCCCC(=O)*

A word on the IC50: it is the point on the concentration scale where inhibition reaches its midpoint. Low readings indicate inhibition by little substance, high ones a need for much substance. Consider `CCCCCCCCCCCCCCCC(=O)N[C@H](Cc1c[nH]cn1)C(=O)N[C@@H](C(=O)OCC)C(C)C` [Compound 5, N-[N-(1-oxohexadecyl)-D-histidyl]-D-valine ethyl ester] (Palmitoyl-[dH]-[dV]-OEt), for which the IC50 stood at 6.11 µM in assay [1], 35 µM in assay [2], 24.9 µM in assay [3] and 9.22 µM in assay [4].
